Data as given in PMC7362391, “USP30 sets a trigger threshold for PINK1–PARKIN amplification of mitochondrial ubiquitylation” (Life Science Alliance, 2020).

Columns and labels:
USP6 = USP6 (Homo sapiens, UniProt P35125); experiment: DUB profiler selectivity panel (Ubiquigent) at […]; assay type: biochemical
USP30 = molecular target: T1, USP30 (Homo sapiens, UniProt Q70CQ3); experiment: bio-layer interferometry (no significant off-rate); IC50 and kinact/KI with purified USP30 and ubiquitin-rhodamine; Ub-PA competition in lysate and cells; assay type: biochemical
T1 construct: BLI: residues 64-502Δ179-216 & 288-305 (biotinylated); activity assay: residues 57-517
T1 sequence (Q70CQ3 57-517): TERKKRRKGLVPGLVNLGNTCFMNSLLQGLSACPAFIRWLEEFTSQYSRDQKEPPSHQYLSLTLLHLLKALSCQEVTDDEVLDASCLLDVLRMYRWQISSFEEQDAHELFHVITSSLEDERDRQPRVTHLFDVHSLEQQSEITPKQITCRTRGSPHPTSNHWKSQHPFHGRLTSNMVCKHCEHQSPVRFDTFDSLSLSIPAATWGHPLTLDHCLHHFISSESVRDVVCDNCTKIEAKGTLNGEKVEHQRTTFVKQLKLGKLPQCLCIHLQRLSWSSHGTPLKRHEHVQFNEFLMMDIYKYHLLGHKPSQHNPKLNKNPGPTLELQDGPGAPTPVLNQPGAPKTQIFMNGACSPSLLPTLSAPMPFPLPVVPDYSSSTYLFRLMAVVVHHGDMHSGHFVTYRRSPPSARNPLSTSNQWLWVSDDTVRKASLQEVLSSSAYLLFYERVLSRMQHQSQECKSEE
Text: bio-layer interferometry (no significant off-rate); IC50 and kinact/KI with purified USP30 and ubiquitin-rhodamine; Ub-PA competition in lysate and cells on USP30 | Bio-layer interferometry experiments show binding behaviour that is consistent with covalent modification of USP30

Chain of USP6 (P35125 whole entry): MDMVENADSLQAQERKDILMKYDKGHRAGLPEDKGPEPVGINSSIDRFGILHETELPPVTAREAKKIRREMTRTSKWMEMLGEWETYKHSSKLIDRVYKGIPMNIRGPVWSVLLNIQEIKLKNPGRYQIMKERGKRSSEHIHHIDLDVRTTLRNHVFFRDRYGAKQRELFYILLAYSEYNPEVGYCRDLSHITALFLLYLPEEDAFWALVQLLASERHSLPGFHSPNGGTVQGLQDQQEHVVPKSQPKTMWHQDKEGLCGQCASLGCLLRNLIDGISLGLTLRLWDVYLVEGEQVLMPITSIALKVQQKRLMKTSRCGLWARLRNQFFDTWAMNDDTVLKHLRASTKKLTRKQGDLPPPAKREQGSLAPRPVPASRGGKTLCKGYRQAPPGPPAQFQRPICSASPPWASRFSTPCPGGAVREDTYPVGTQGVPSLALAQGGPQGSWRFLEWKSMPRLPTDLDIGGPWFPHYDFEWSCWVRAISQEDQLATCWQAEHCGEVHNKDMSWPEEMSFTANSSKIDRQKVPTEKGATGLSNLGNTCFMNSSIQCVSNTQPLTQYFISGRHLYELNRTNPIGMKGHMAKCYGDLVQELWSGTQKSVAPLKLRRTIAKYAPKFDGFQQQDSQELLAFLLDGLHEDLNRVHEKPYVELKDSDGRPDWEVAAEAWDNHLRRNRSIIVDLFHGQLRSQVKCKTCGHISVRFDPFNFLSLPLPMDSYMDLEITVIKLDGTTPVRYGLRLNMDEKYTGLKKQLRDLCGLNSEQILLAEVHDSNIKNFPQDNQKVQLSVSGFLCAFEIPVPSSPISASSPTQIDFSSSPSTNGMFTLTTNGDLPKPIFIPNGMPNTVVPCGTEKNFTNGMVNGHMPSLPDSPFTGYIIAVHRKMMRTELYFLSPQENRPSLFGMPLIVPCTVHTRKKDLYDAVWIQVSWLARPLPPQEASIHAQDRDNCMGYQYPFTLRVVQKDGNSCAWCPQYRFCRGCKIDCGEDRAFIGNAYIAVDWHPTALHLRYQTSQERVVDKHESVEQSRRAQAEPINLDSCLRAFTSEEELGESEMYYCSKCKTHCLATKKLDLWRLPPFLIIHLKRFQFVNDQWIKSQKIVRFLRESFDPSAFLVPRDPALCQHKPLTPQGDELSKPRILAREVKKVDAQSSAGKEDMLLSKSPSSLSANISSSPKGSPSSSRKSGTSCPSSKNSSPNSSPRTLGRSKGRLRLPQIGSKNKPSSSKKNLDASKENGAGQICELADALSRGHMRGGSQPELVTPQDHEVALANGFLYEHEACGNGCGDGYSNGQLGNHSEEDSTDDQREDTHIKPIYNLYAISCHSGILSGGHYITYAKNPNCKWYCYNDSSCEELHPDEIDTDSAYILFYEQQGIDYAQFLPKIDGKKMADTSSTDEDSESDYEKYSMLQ

`N#CN1CCC(NC(=O)c2cc(-c3ccccc3Oc3ccccc3)n[nH]2)C1` (centres unmarked) [FT385, FT3967385] was tested, and the “DUB profiler selectivity panel (Ubiquigent) at 2, 20 and 200 nM” value (USP6) was “Only one other family member, the plasma membrane–associated USP6, showed a significant degree of inhibition” and the IC50 (USP30) was roughly 1 nM.
